Experimental data as given in patent US20090035440A1, “Compositions comprising polyphenol” (Conopco, Inc. d/b/a Unilever, priority 2007, published 2009).

Tests used:
[1] = Dynamic light scattering particle size of EGCG/complexing agent mixed systems (Example 1); assay type: physicochemical; settings: 0.6 wt % EGCG and 0.6 wt % CA; DLS at 25° C., undiluted; volume-averaged; one value per peak where more than one peak
Experimental: (§1) Stock solutions containing 1.2 wt % EGCG were prepared by adding the powder to de-ionized water (conductivity=18.2 MΩ.cm) and stirring at 40° C. […] Stock solutions of pectin, were prepared by dissolving powder in de-ionized water at 80° C. for 1 hour and then cooling to 25° C. After dissolving the material, the pH of all samples, except for the WPI, was adjusted to 5.0 using 0.01 HCl or 0.1 M NaOH. The WPI was used at a pH of 6.5 to avoid precipitation of the whey proteins. In all cases the maximum ionic strength would remain below 10 mM. After setting the pH, mixed systems were prepared by quickly adding a fixed weight of the stock EGCG-solution into the same weight of complexing agent (CA)-solution under continuous stirring. Thus the final samples contained 0.6 wt % EGCG and 0.6 wt % CA.
DLS measurements were performed within 4 hours after sample preparation using a Zetasizer Nano ZS instrument (Malvern Instruments, Malvern, UK). This instrument records intensity fluctuations of scattered light at a fixed angle from clear samples containing particles between 1 and 1000 nm in size. These fluctuations are converted into an autocorrelation function spanning time scales between picoseconds and seconds. The instrument software fits intensity- and volume-weighed size distributions to the recorded autocorrelations. Samples were measured without any dilution at 25° C. […]

[2] = Appearance of EGCG/complexing agent mixed systems (Example 1); assay type: physicochemical; settings: 0.6 wt % EGCG and 0.6 wt % CA
Experimental: as §1

[3] = 1H-NMR estimate of non-complexed (free) EGCG in mixed systems with complexing agent; assay type: binding; settings: 0.6 wt % EGCG and 0.6 wt % CA in de-ionized water; pH 5.0 (WPI pH 6.5); 1H-NMR at 27° C.
Experimental: as §1
Proton-NMR measurements were carried out on 0.6 ml samples in 5 mm NMR tubes at 27° C. using a Bruker AV600 NMR spectrometer. Prior to measurement, 5% (w/w) of D2O was added to each sample. The spectra were acquired with presaturation of the water signal using the Bruker pulse program: noesygppr1d. A signal at ˜4.7 ppm was from residual water and was ignored for data analysis purposes. […] This calibration curve was used to estimate the amount of non-complexed (or “free”) EGCG in the samples.

Row | Compound | Average Particle Size (nm) [1] [nm] | Appearance [2] | Amount of EGCG free in solution (wt % of total EGCG) [3]
1 | O=C(O)[C@@H]1CCCN1 [L-proline] | 2 | Transparent | 100 wt % of total EGCG
2 | poly-L-proline |  |  | 0 wt % of total EGCG
